Experimental data: patent publication US20110092510A1, “DPP-IV INHIBITORS FOR USE IN THE TREATMENT OF NAFLD” (BOEHRINGER INGELHEIM INTERNATIONAL GMBH, priority 2008, published 2011)
Entries after “also recorded” stand apart in the source; their conditions may differ.

Tests used:
[1] = Safety and tolerability in people with type 2 diabetes; format: in vivo
[2] = Excretion/elimination of BI 1356 at therapeutic oral dose levels; format: in vivo

CC#CCn1c(N2CCC[C@@H](N)C2)nc2c1c(=O)n(Cc1nc(C)c3ccccc3n1)c(=O)n2C [BI 1356, 1-[(4-methyl-quinazolin-2-yl)methyl]-3-methyl-7-(2-butyn-1-yl)-8-(3-(R)-amino-piperidin-1-yl)-xanthine]
safety and tolerability [1]: placebo-like safety and tolerability | fraction excreted via the kidney [2]: < 7 % of the administered oral dose | main route of excretion [2]: mainly excreted via the liver; also recorded: primarily excreted unchanged via the bile
